Test results as given in PubChem BioAssay (NCI).
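Method: 48-hour compound exposure of cells in 96-well plates, five concentrations, linear interpolation of endpoints. TGI: total growth inhibition.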

Assays:
Experiment in all cases: inhibition of tumour cell growth, NCI panel, 48 h
[1] = tested on: ACHN renal
[2] = tested on: HL-60(TB) leukemia
[3] = tested on: KM12 colon
[4] = tested on: MCF7 breast
[5] = tested on: MDA-MB-231 breast
[6] = tested on: MDA-N
[7] = tested on: OVCAR-3 ovarian
[8] = tested on: OVCAR-4 ovarian
[9] = tested on: OVCAR-8 ovarian
[10] = tested on: SK-MEL-28 melanoma
[11] = tested on: SNB-75 CNS
[12] = tested on: T-47D breast

SMILES | TGI [1] [µM] | TGI [2] [µM] | TGI [3] [µM] | TGI [4] [µM] | TGI [5] [µM] | TGI [6] [µM] | TGI [7] [µM] | TGI [8] [µM] | TGI [9] [µM] | TGI [10] [µM] | TGI [11] [µM] | TGI [12] [µM]
CC(=O)O[C@H]1CC[C@@]2(C)C(=CC[C@@H]3[C@@H]2CC[C@]2(C)C(=N/O)/C(=C\c4ccccc4)C[C@@H]32)C1 | > 100 | 49.3 | 10.6 | > 100 | 73.2 | 99.4 | 54.7 | > 100 | > 100 | > 56.3 | > 100 | > 93.7
COC(=O)[C@@H]1CS(=O)(=O)C(C(C)C)N1C(C)=O (some centres not stated) | > 100 | 32.1 | > 100 | > 100 | > 100 | > 100 | > 100 | > 100 | > 100 | > 100 | > 100 | > 100
COc1ccc(C2C3=C(N=C4SC(C(C)=O)=C(C)N42)c2ccccc2CC3)cc1 (configuration not stated) | > 100 | 58 | > 100 | > 100 | > 100 | > 100 | > 100 | > 100 | > 100 | > 100 | > 100 | > 100
Cc1cn(C2CCC(CO)(CF)O2)c(=O)[nH]c1=O (configuration not stated) | > 100 | > 100 | > 100 | > 100 | > 100 | > 100 | > 100 | > 100 | > 100 | > 100 | > 100 | > 100
NNC(=O)Nc1nc2ccc(NN)cc2[nH]1 | > 100 | 32.4 | 48.7 | 82.5 | > 100 | > 100 | > 100 | > 100 | > 100 | 56.8 | 84.2 | > 100
O=C(Nc1sccc1S(=O)(=O)c1ccc(Cl)cc1)c1ccc(F)cc1F | > 100 | > 100 | > 100 | > 100 | 54 | > 100 | > 100 | 53.9 | > 100 | > 100 | 38.8 | > 100
